Results taken from patent publication US10982284B2, “Compositions and methods APC, CREB, and BAD pathways to assess and affect cancer” (H. Lee Moffitt Cancer Center and Research Institute, Inc., priority 2011, dated 2021).

Key:
Assay in all cases: CellTiter-Blue cell viability assay
Type in all cases: cell-based, human
[1] = tested on: A2008; settings: A2008 ovarian cancer cell line; 72 hours; 50% reduction in growth/viability
From the text: (§1) Ovarian cancer cell lines were obtained from the American Type Culture Collection (Manassas, Va.) (CAOV3, OV90, OVCAR3, SKOV3, TO[…]); from the European Collection of Cell Cultures, Salisbury, UK (A2780CP, A2780S); or from Kyoto University, Kyoto, Japan ([…], Tyknu, and TyknuC is R) or were kind gifts from Dr. Patricia Kruk, Department of Pathology, College of Medicine, University of South Florida, Tampa, Fla., and Susan Murphy, PhD, Dept of OBGYN/Division of GYN Oncology, Duke University, Durham, N.C. […] Cell lines were maintained in RPMI-1640 (Invitrogen, Carlsbad, Calif.) supplemented with 10% fetal bovine serum (Fisher Scientific, Pittsburgh, Pa.), 1% sodium pyruvate, 1% penicillin/streptomycin (Cellgro, Manassas, Va.), and 1% nonessential amino acids (HyClone, Hudson, N.H.). Mycoplasma testing was performed every 6 months following manufacturer's protocol (Lonza, Rockland, Me.). Drug activity was evaluated using a high-throughput CellTiter-Blue cell viability assay. […] After cell adherence, increasing concentrations of cisplatin, carboplatin (Sigma-Aldrich, St. Louis, Mo.), paclitaxel (Sequoia Research Products Ltd., Pangbourne, UK), or carboplatin plus paclitaxel (carbotaxol: constant molar ratio of carboplatin to paclitaxel of 20,000:1) were added to appropriate wells using an automated pipetting station. Four replicate wells were used for each drug concentration and vehicle controls. […] The cells were incubated with the drug for 72 hours, and 5 μL of CellTiter-Blue reagent (Promega Corp) was added to each well. Fluorescence was read at […] using a Synergy 4 microplate reader (Bio-Tek Instruments, Inc., Winooski, Vt.).

[2] = tested on: A2780CP; settings: A2780CP ovarian cancer cell line; 72 hours; 50% reduction in growth/viability
From the text: as §1

[3] = tested on: A2780S; settings: A2780S ovarian cancer cell line; 72 hours; 50% reduction in growth/viability
From the text: as §1

[4] = tested on: BG1; settings: BG1 ovarian cancer cell line; 72 hours; 50% reduction in growth/viability
From the text: as §1

[5] = tested on: C13; settings: C13 ovarian cancer cell line; 72 hours; 50% reduction in growth/viability
From the text: as §1

[6] = tested on: CAOV2; settings: CAOV2 ovarian cancer cell line; 72 hours; 50% reduction in growth/viability
From the text: as §1

[7] = tested on: CAOV3; settings: CAOV3 ovarian cancer cell line; 72 hours; 50% reduction in growth/viability
From the text: as §1

[8] = tested on: CHIcisR; settings: CHIcisR ovarian cancer cell line; 72 hours; 50% reduction in growth/viability
From the text: as §1

[9] = tested on: CHI; settings: CHI ovarian cancer cell line; 72 hours; 50% reduction in growth/viability
From the text: as §1

[10] = tested on: Dov13; settings: Dov13 ovarian cancer cell line; 72 hours; 50% reduction in growth/viability
From the text: as §1

[11] = tested on: HeyA8; settings: HeyA8 ovarian cancer cell line; 72 hours; 50% reduction in growth/viability
From the text: as §1

[12] = tested on: IGR-OV1; settings: IGR-OV1 ovarian cancer cell line; 72 hours; 50% reduction in growth/viability
From the text: as §1

[13] = tested on: IMCC3; settings: IMCC3 ovarian cancer cell line; 72 hours; 50% reduction in growth/viability
From the text: as §1

[14] = tested on: IMCC5; settings: IMCC5 ovarian cancer cell line; 72 hours; 50% reduction in growth/viability
From the text: as §1

[15] = tested on: M41CSR; settings: M41CSR ovarian cancer cell line; 72 hours; 50% reduction in growth/viability
From the text: as §1

[16] = tested on: M41; settings: M41 ovarian cancer cell line; 72 hours; 50% reduction in growth/viability
From the text: as §1

[17] = tested on: MCAS; settings: MCAS ovarian cancer cell line; 72 hours; 50% reduction in growth/viability
From the text: as §1

[18] = tested on: OV2008; settings: OV2008 ovarian cancer cell line; 72 hours; 50% reduction in growth/viability
From the text: as §1

[19] = tested on: OVCA420; settings: OVCA420 ovarian cancer cell line; 72 hours; 50% reduction in growth/viability
From the text: as §1

[20] = tested on: OVCA429; settings: OVCA429 ovarian cancer cell line; 72 hours; 50% reduction in growth/viability
From the text: as §1

[21] = tested on: OVCA432; settings: OVCA432 ovarian cancer cell line; 72 hours; 50% reduction in growth/viability
From the text: as §1

[22] = tested on: OVCA433; settings: OVCA433 ovarian cancer cell line; 72 hours; 50% reduction in growth/viability
From the text: as §1

[23] = tested on: OVCAR10; settings: OVCAR10 ovarian cancer cell line; 72 hours; 50% reduction in growth/viability
From the text: as §1

[24] = tested on: OVCAR2; settings: OVCAR2 ovarian cancer cell line; 72 hours; 50% reduction in growth/viability
From the text: as §1

[25] = tested on: OVCAR3; settings: OVCAR3 ovarian cancer cell line; 72 hours; 50% reduction in growth/viability
From the text: as §1

[26] = tested on: OVCAR4; settings: OVCAR4 ovarian cancer cell line; 72 hours; 50% reduction in growth/viability
From the text: as §1

[27] = tested on: OVCAR5; settings: OVCAR5 ovarian cancer cell line; 72 hours; 50% reduction in growth/viability
From the text: as §1

[28] = tested on: OVCAR8; settings: OVCAR8 ovarian cancer cell line; 72 hours; 50% reduction in growth/viability
From the text: as §1

[29] = tested on: Ovary1847; settings: Ovary1847 ovarian cancer cell line; 72 hours; 50% reduction in growth/viability
From the text: as §1

[30] = tested on: SK-OV-4; settings: SK-OV-4 ovarian cancer cell line; 72 hours; 50% reduction in growth/viability
From the text: as §1

[31] = tested on: TyknuCisR; settings: TyknuCisR ovarian cancer cell line; 72 hours; 50% reduction in growth/viability
From the text: as §1

[32] = tested on: Tyknu; settings: Tyknu ovarian cancer cell line; 72 hours; 50% reduction in growth/viability
From the text: as §1

N.N.[Cl][Pt][Cl] [Cisplatin, cisplatin]
IC50 [1]: 1.5 µM | IC50 [2]: 43.8 µM | IC50 [3]: 4.7 µM | IC50 [4]: 36.4 µM | IC50 [5]: 17.9 µM | IC50 [6]: 4.5 µM | IC50 [7]: 34.4 µM | IC50 [8]: 1.3 µM | IC50 [9]: 4.9 µM | IC50 [10]: 24.6 µM | IC50 [11]: 33.1 µM | IC50 [12]: 1.4 µM | IC50 [13]: 22 µM | IC50 [14]: 4.9 µM | IC50 [15]: 13.5 µM | IC50 [16]: 12.8 µM | IC50 [17]: 61.3 µM | IC50 [18]: 3.5 µM | IC50 [19]: 13.7 µM | IC50 [20]: 5.8 µM | IC50 [21]: 1.4 µM | IC50 [22]: 8.8 µM | IC50 [23]: 32.5 µM | IC50 [24]: 3.7 µM | IC50 [25]: 1.3 µM | IC50 [26]: 20.5 µM | IC50 [27]: 12.9 µM | IC50 [28]: 75.3 µM | IC50 [29]: 8.7 µM | IC50 [30]: 13 µM | IC50 [31]: 17.7 µM | IC50 [32]: 4.8 µM
